Experimental findings from ChEMBL document CHEMBL1146307, “Exploring the active site of phenylethanolamine N-methyltransferase with 1,2,3,4-tetrahydrobenz[h]isoquinoline inhibitors” (Bioorg Med Chem, 2007) are described below.

Experiment [1] in a line: Selectivity for human PNMT over Sprague-Dawley rat adrenergic alpha-2 receptor.
The target in experiment [2] is T1, Adrenergic receptor alpha-2 (Rattus norvegicus, UniProt P22086+P19328+P22909).
T1 sequence (P22086 whole entry): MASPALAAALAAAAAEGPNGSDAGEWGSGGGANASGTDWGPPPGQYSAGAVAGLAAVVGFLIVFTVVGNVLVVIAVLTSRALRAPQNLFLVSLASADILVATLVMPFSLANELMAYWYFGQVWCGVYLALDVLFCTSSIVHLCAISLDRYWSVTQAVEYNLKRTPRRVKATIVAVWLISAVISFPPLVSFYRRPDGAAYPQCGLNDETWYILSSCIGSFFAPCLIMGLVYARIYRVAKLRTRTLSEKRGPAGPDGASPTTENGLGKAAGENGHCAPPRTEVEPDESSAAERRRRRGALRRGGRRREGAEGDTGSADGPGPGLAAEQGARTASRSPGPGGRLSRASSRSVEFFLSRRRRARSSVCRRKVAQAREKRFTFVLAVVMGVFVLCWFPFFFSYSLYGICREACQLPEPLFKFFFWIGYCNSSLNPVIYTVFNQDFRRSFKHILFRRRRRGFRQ
T1 sequence (P19328 whole entry): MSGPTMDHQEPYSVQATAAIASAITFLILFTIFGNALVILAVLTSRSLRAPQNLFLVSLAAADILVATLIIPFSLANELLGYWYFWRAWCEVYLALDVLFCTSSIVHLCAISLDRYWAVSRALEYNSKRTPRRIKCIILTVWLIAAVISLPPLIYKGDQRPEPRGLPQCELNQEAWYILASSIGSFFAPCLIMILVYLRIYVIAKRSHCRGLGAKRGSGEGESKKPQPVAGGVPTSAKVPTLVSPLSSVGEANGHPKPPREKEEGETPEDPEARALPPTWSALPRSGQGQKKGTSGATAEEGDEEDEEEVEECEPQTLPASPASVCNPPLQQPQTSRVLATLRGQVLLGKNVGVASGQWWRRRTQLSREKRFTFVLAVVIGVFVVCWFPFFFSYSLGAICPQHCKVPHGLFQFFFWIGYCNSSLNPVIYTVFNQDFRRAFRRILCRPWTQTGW
T1 sequence (P22909 whole entry): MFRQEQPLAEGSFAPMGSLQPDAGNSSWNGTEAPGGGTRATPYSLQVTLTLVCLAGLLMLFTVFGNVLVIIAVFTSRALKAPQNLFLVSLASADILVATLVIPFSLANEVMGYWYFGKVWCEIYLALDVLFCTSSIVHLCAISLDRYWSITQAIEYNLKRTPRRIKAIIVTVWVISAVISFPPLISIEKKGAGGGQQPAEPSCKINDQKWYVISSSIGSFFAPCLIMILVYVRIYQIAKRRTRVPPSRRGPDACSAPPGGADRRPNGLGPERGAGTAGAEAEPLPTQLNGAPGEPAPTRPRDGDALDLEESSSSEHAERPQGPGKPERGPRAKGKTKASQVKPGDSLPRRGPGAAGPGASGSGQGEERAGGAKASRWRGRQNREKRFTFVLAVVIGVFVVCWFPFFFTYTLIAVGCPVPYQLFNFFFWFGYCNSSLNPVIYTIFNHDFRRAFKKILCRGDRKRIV
Put plainly: Displacement of [3H]clonidine from adrenergic alpha2 receptor in Sprague-Dawley rat cortex membrane. The experiment is classed as cell membranes. A general note: In a radioligand displacement assay an active substance lowers the binding of a labelled ligand.

As for `c1ccc2c(c1)CCNC2`, the Ratio Ki in experiment [1] amounted to 0.06.
For `c1ccc2c3c(ccc2c1)CCNC3`, the Ki (usually a dissociation constant, usually derived from enzyme kinetics or from competition with a known ligand) in experiment [2] was 16 nM.
On the same count and under the same terms, with `Brc1cccc2c3c(ccc12)CCNC3` the figure was 100 nM.
On the same count and under the same terms, with `O=[N+]([O-])c1cccc2c3c(ccc12)CCNC3` the figure was 410 nM; with `N#Cc1cccc2c3c(ccc12)CCNC3`, 590 nM.
Same read-out and setting: with `COc1cccc2c3c(ccc12)CCNC3` the figure was 160 nM; with `Oc1cccc2c3c(ccc12)CCNC3`, 11 nM.
In experiment [2], `NS(=O)(=O)c1cccc2c3c(ccc12)CCNC3` had a Ki of 2900 nM.
